Measurements taken from patent US20190076417A1, “COMPOSITIONS AND METHODS FOR TREATING OR PREVENTING ATRIAL FIBRILLATION” (Northwestern University, priority 2010, published 2019).

Assays:
[1] = test system: M2 versus M1 muscarinic receptor subtype; details: cited from earlier work
[2] = test system: M2 versus M3 muscarinic receptor subtype; details: cited from earlier work
[3] = test system: canine model, vagal stimulation; assay: Canine arrhythmia model: ERP shortening and AF induced by vagal stimulation; type: in vivo; details: 20 microgram/kg single iv, 10-15 minutes after administration
Protocol: Canine Arrhythmia Model. […] Bioorg. Med. Chem. 2007, 15, 2312-2321), was evaluated for its ability to decrease effective refractory period and atrial fibrillation induced by vagal stimulation. Open chest electrophysiological mapping was performed in a canine model as previously described (Arora, R. et al. Am. J. Physiol. Heart Circ. Physiol. 2008, 294, […]-[…]). […] At baseline, effective refractory periods (ERPs) were obtained at multiple sites on each plaque in the absence and presence of vagal stimulation (VS). AF inducibility was also assessed under each of these conditions i.e. with and without VS. After baseline measurements had been made, methoctramine tetrahydrochloride hydrate (20 microgram/kg), dissolved in normal saline, was administered via a single iv injection. 10-15 minutes after methoctramine administration, ERPs and AF inducibility were reassessed in the absence and presence of VS.

[4] = test system: canines subjected to heart failure (HF); assay: Vagal stimulation induced ERP shortening in canine heart failure model (rapid ventricular pacing); type: in vivo; details: left atrium, in presence of AChE inhibitor, without it 10±4
Protocol: Effective Refractory Periods. Effective refractory periods (ERPs) were obtained from 5 distributed sites from the PV, 6 sites from the PLA, and 4 sites from the LAA during each autonomic intervention. For each ERP, the pacing protocol consisted of a drive train (S1) of eight beats with a cycle length of 400 ms followed by an extrastimulus (S2). The S2 was decremented by 10 ms until loss of capture. […] Pacing was performed at an output current twice the threshold required for consistent capture of the tissue. The mean ERP was used as the representative ERP for each of the three sites as well as the entire left atrium.
Canines were subjected to heart failure (HF) by rapid ventricular pacing (240/min for 3 weeks). Vagal stimulation induced ERP shortening (VS-ΔERP)(ms) was assessed in the test canines as well as controls at multiple sites in the LA. VS-ΔERP was reassessed in the presence of an acetylcholineesterase (AChE) inhibitor (physostigmine). Explanted LA were subjected to 1) ELISA for acetylcholinesterase (AChE) activity, 2) AChE immunostaining and 3) radioactive M2 receptor binding assay.

Cc1cccc(C(=O)N2CCC(N3CCC(Cc4ccc(S(=O)(=O)c5cccc(Cl)c5)cc4)CC3)CC2)c1N [Sch 211803]
selectivity for M2 versus M1 [1]: 734 fold
selectivity for M2 versus M3 [2]: 786 fold

CC(C)N(CC[C@H](c1ccccc1)c1cc(CO)ccc1O)C(C)C
selectivity for M2 versus M3 [2]: 2 fold

COc1ccccc1CNCCCCCCNCCCCCCCCNCCCCCCNCc1ccccc1OC [methoctramine]
Vagal induced AF [3]: markedly decreased
Vagal induced ERP shortening ([3]; baseline 40 ms, p<0.01): 10 ms
selectivity for M2 versus M1 [1]: 35 fold
selectivity for M2 versus M3 [2]: 219 fold

Cc1ccc(O)c([C@H](CCN(C(C)C)C(C)C)c2ccccc2)c1 [tolterodine]
selectivity for M2 versus M3 [2]: 1.7 fold

CNC(=O)Oc1ccc2c(c1)[C@]1(C)CCN(C)[C@@H]1N2C [physostigmine]
Vagal stimulation induced ERP shortening (VS-ΔERP) [4]: 28 ± 4 ms

COc1ccncc1CN1CCC(N(CCCCCCCN2CC[C@@H](C(C(N)=O)(c3ccccc3)c3ccccc3)C2)C(C)C)CC1 [TD-6301]
selectivity for M2 versus M1 [1]: 31 fold
selectivity for M2 versus M3 [2]: 36 fold
